Data set [1] concerns A2780cis cells (Cisplatin-resistant). The data set is classed as cell-based, human. The following applies: 72 h incubation; mean ± SD of two or three independent experiments; read-out: metabolic activity IC50, A2780cis.
In data set [2] the test system is K562-R cells (Doxorubicin-resistant subclone). The format is cell-based. To be noted: 72 h incubation; mean ± SD of two or three independent experiments; read-out: metabolic activity IC50, K562-R.
The test system of data set [3] is MCF-7 cells. The format is cell-based, human. The following applies: 72 h incubation; mean ± SD of two or three independent experiments; read-out: metabolic activity IC50, MCF-7.
Data set [4] is described as follows: HPLC reactivity study in chloride containing ACN/water. The format is physicochemical.
Data set [5] has as its system MCF-7TamR cells (Tamoxifen-resistant subline). The format is cell-based, human. To be noted: 72 h incubation; mean ± SD of two or three independent experiments; read-out: metabolic activity IC50, MCF-7TamR.
The nature of data set [6]: HPLC degradation study in ACN/RPMI 1640 cell culture medium. The following applies: 0.5 mM.
Data set [7] has as its system IGROV1 cells. The format is cell-based. To be noted: 72 h incubation; mean ± SD of two or three independent experiments; read-out: metabolic activity IC50, IGROV1.
Data set [8] deals with IGROV1-CSC cells. The data set is classed as cell-based. To be noted: 72 h incubation; mean ± SD of two or three independent experiments; read-out: metabolic activity IC50, IGROV1-CSC.
The subject of data set [9] is A549 cells. The data set is classed as cell-based. The following applies: 72 h incubation; mean ± SD of two or three independent experiments; read-out: metabolic activity IC50, A549.
The test system of data set [10] is A2780 cells. The data set is classed as cell-based, human.
Data set [11] deals with K562 cells. The format is cell-based. The following applies: 72 h incubation; mean ± SD of two or three independent experiments; read-out: metabolic activity IC50, K562.
Data set [12] has as its system A549-R cells (Taxol/Paclitaxel-resistant subclone). The format is cell-based. The following applies: 72 h incubation; mean ± SD of two or three independent experiments; read-out: metabolic activity IC50, A549-R.
Data set [13] is described as follows: HPLC reactivity study with GSH in ACN/water. The data set is classed as physicochemical. The following applies: t0h (1.5 min); 20 equiv GSH; ACN/water 50/50; 0.5 mM. As to the method:
All nucleophiles (chloride, amino acids, and GSH) were separately reacted with 5–11 in ACN/water = 50/50 (v/v) mixtures at a complex concentration 0.5 mM. This solvent composition was chosen to prevent precipitation of the complex and the formed degradation products.
Amino acids, as well as GSH, were used in 20-fold excess, as realized at a complex concentration of 10 μM in the cell culture medium. Thereto, the respective complex, dissolved in ACN (1 mM), was combined with the same amount of aqueous solution of the nucleophile (20 mM).
The mixture was then incubated for 24 h at rt and monitored at various time points via HPLC using an RP-C18 column and gradient elution (70/30 (v/v) to 90/10 (v/v)) of ACN/water (0.1% trifluoroacetic acid (TFA)).
Experiments in ACN/water: 1.0 mM solutions of the respective complex were prepared in ACN and diluted with HPLC-grade water (50/50, (v/v)) containing the double-concentrated amount of respective amino acid (20 mM), GSH (20 mM), sodium ascorbate (20 mM), or NADPH (20 mM). As a chloride source, an aqueous solution of KCl 0.8 g/L and NaCl 12 g/L was used. In each case, a final complex concentration of 0.5 mM was achieved. The solutions were incubated for 24 h at rt. For the experiments with RPMI 1640, the aqueous phase was replaced by a cell culture medium.
Samples (20 μL each) were taken at appropriate time points (t = 0 (1.5 min), 0.5, 1, 1.5, 2, 8, 12, and 24 h) and analyzed with a Shimadzu prominence HPLC system. The mobile phase consisted of ACN (HPLC-grade) and water (HPLC-grade) with 0.1% TFA. To achieve a separation of the compounds, gradient elution from (70/30 (v/v) to 90/10 (v/v)) of ACN/water (0.1% trifluoroacetic acid (TFA)) was used with a flow rate of 1 mL/min at an oven temperature of 35 °C. All solvents have been degassed before use. The injection volume was 20 μL, and the detection wavelength was set at 235 nm, to detect the gold complexes and the amino acids in the chromatogram.

The subject of data set [14] is SV-80 lung fibroblast cells. In words: Modified MTT assay in noncancerous cells. The format is cell-based. To be noted: at 10 μM; mean of three independent experiments. (Tetrazolium dyes change colour on reduction, which living cells bring about.)
Setting [15] is: t0h, chloride containing ACN/water 50/50, 0.5 mM.
Where [16] appears, read: t24h, chloride containing ACN/water 50/50, 0.5 mM.
Setting [17] is: 72 h incubation, mean ± SD of two or three independent experiments, read-out: metabolic activity IC50, A2780.

Where two headings read alike, the source gives them in different places.

In general, IC50 refers to the midpoint of a concentration-inhibition curve.

Take `CCn1c(-c2ccccc2)c(-c2ccccc2)n(CC)[c]1=[Au+]([Br])([Br])=[c]1n(CC)c(-c2ccccc2)c(-c2ccccc2)n1CC.F[P-](F)(F)(F)(F)F` [Complex 10, Bis[1,3-diethyl-4,5-diphenyl-1H-imidazol-2-ylidene]dibromidogold(III) Hexafluorophosphate]: the IC50 in [1] amounted to 100 ± 40 nM; in data set [2] it was 1590 ± 300 nM; in [3], 220 ± 70 nM; in [5] it was 290 ± 180 nM; in data set [7], 440 ± 190 nM; in [8] it was 1290 ± 230 nM. Besides, the IC50 in [9] was determined as 200 ± 20 nM; in [10] (setting [17]), 290 ± 50 nM; in data set [11] it was 490 ± 120 nM; in data set [12] it was 250 ± 40 nM. Further, the “formation of 8” value in data set [4] (t0h (1.5 min), chloride containing ACN/water 50/50, 0.5 mM) was 2.2%; in data set [6] (t0h, ACN/RPMI 1640 50/50) it was 9.3%; in data set [6] (t24h, ACN/RPMI 1640 50/50) it was 71.1%. Also, the “substitution to 9” value worked out at 24.0% in [4] (setting [15]) and 54.4% in data set [4] (setting [16]). Further, the “formation of 8 (ligand scrambling / reduction)” value in data set [4] (setting [16]) is on record as 5.1%. The “formation of 9 (Br/Cl exchange)” value in data set [6] (t0h, ACN/RPMI 1640 50/50) amounted to 42.3%. Also, the “amount of 9” value in data set [6] (t24h, ACN/RPMI 1640 50/50) is given as 18.2%. Moreover, the “remaining amount of the complex itself” value in [6] (t24h, ACN/RPMI 1640 50/50) is listed as 10.7%.
For `N.N.[Cl][Pt][Cl]` [Cisplatin, reference compound], the IC50 in data set [1] came out at 9800 ± 640 nM; in [2], 9930 ± 770 nM; in data set [3] it was 7180 ± 1280 nM; in data set [5], 4130 ± 590 nM; in [7], 2840 ± 760 nM; in [8], 3760 ± 400 nM. The IC50 came out at 6670 ± 630 nM in [9], 6650 ± 1420 nM in [10] (setting [17]), 7910 ± 780 nM in [11] and 6990 ± 570 nM in data set [12].
As for `CCn1c(-c2ccccc2)c(-c2ccccc2)n(CC)[c]1=[Au][S]C[C@H](NC(=O)CC[C@H](N)C(=O)O)C(=O)NCC(=O)O` [Complex 12], the “IC50 relative to 5 (and 6) in A2780 cells, times higher / fold less active” value is listed as “about 2 fold” in [10] and 2 fold in [10] (listed as (NHC)Au(I)-GSH). The IC50 in data set [10] (preliminary experiment, read-out: cell growth IC50, A2780) came to 15900 nM.
For the compound `CC(=O)OC[C@H]1O[C@@H]([S-])[C@H](OC(C)=O)[C@@H](OC(C)=O)[C@@H]1OC(C)=O.CCP(CC)CC.[Au+]` [Auranofin, reference compound], the IC50 in data set [2] was found to be 3750 ± 380 nM; in data set [3], 3150 ± 360 nM; in data set [5], 1140 ± 460 nM; in data set [9] it was 4260 ± 450 nM; in data set [11] it was 3660 ± 270 nM; in data set [12], 4420 ± 440 nM.
On to “Bromido[1,3-diethyl-4,5-diphenyl-1H-imidazol-2-ylidene]gold(I) [Complex 6]”, for which the IC50 in data set [1] is 2870 ± 330 nM; in data set [2], greater than 10000 nM; in data set [3] it was 4540 ± 520 nM; in [5], 4640 ± 440 nM; in data set [7], 5780 ± 900 nM; in data set [8], 8780 ± 600 nM. The concentration for half-maximal inhibition (IC50) in data set [9] is greater than 10000 nM; in [10] (setting [17]), 9380 ± 800 nM; in [11], greater than 10000 nM; in data set [12], greater than 10000 nM. The “conversion to 5” value in [4] (t0h (1.5 min), ACN/water 50/50, 6.0 g/L NaCl + 0.4 g/L KCl, 0.5 mM complex, rt) was “quantitatively”; in [6] (t0h, ACN/RPMI 1640 50/50 (without FCS)), “immediately converted”. In data set [13], the “substitution to (NHC)Au(I)-GSH adduct 12” value is listed as “quantitatively”. The “metabolic activity (remaining) in SV-80 cells” value in data set [14] is 20%.
In the case of “Bis[1,3-diethyl-4,5-diphenyl-1H-imidazol-2-ylidene]diiodidogold(III) Hexafluorophosphate [Complex 11]”, the IC50 amounted to 20 ± 10 nM in [1]; 2260 ± 1080 nM in data set [2]; 190 ± 50 nM in data set [3]; 200 ± 70 nM in data set [5]; 1280 ± 930 nM in data set [7]; 2450 ± 970 nM in [8]. In addition, the IC50 in data set [9] came out at 250 ± 20 nM; in data set [10] (setting [17]) it was 280 ± 60 nM; in data set [11] it was 970 ± 260 nM; in [12] it was 270 ± 40 nM. Further, the “substitution to 9” value in [4] (setting [15]) is recorded as 0.4%. Further, in [6] (ACN/RPMI 1640 50/50), the “time to complete conversion to 8” value is no more than 8 h.
For the compound `CCn1c(-c2ccccc2)c(-c2ccccc2)n(CC)[c]1=[Au+]([Cl])([Cl])=[c]1n(CC)c(-c2ccccc2)c(-c2ccccc2)n1CC.F[P-](F)(F)(F)(F)F` [Complex 9, Bis[1,3-diethyl-4,5-diphenyl-1H-imidazol-2-yliden]dichloridogold(III) Hexafluorophosphate], the IC50 worked out at 50 ± 20 nM in data set [1]; 1430 ± 290 nM in data set [2]; 240 ± 50 nM in data set [3]; 260 ± 50 nM in data set [5]; 700 ± 380 nM in data set [7]; 1740 ± 190 nM in data set [8]. In addition, the IC50 in [9] amounted to 180 ± 10 nM; in data set [10] (setting [17]), 250 ± 40 nM; in data set [11], 550 ± 160 nM; in [12] it was 210 ± 20 nM. Besides, the “formation of 8 (ligand scrambling / reduction)” value in [4] (setting [16]) is 12.5%. Besides, the “formation of 8” value in [6] (t0h, ACN/RPMI 1640 50/50) is 5.0%; in data set [6] (t24h, ACN/RPMI 1640 50/50), 36.3%.
